# Experimental data from US10757944B2, “Ozone treatment for elimination of pathogens” (priority 2016, dated 2020).
# Where “and” joins values, the source holds several entries; their conditions need not be identical. Equal entries are not always repeated.
# Tested on: Listeria monocytogenes
# Test: Gaseous ozone treatment of Cannabis inoculated with Listeria, microbial count
# Assay type: cell-based
# Conditions: for kill of bacterial pathogen (in words): 20 minutes
# Protocol: Cannabis plants were individually contaminated with Escherichia Coli, Salmonella enterica sv typhimurium, Listeria monocytogenes and Candida albicans then exposed to gaseous ozone for 20 minutes at 100 ppm and 200 ppm.
# Pure cultures of Escherichia coli and Listeria monocytogenes provided by the American Type Culture Collection (ATCC) were grown in selective media broths. The Candida albicans provided by ATCC was grown on potato dextrose agar, and after significant growth was achieved, the colonies were transferred and suspended in Butterfield's buffer. After significant turbidity in each broth of pathogens was observed, they, along with Butterfield's buffer with the suspended Candida albicans, were used to inoculate individual Cannabis samples. This process created four individual populations of Cannabis with each population being contaminated with one of the four organisms grown. After inoculating the samples they were allowed to dry overnight by placing them out in the open at room temperature. Each population of Cannabis was then divided into smaller individual 2-4 gram samples which were used in the tests. One test consisted of placing nearly half of the smaller samples into an ozone gas chamber for 20 minutes at an approximate ozone concentration of 100 ppm. The remaining samples were set aside to be used as controls.
# Three samples for each organism were tested at each of the concentrations. The control samples were placed into the same chamber for 20 minutes with an ozone concentration of 0 ppm. All samples were then analyzed for their microbial counts by first generating serial dilution using Butterfield's buffer as the diluent for each sample then individually plating the resultant dilutions onto selective media appropriate for the organism being analyzed. After the required incubation temperatures and times were completed, the organisms on the plates were counted. For each set of dilutions of a given sample and starting at the plate representing the lowest dilution ratio, the first plate that was countable was counted and the result was recorded.
# Testing occurred over two days. The first day involved testing one sample of Cannabis for each organism at an ozone concentration of 100 ppm and another test of only Listeria at 50 ppm. Additional testing involving subsequent trials for each organism at ozone concentrations of 100 ppm and 200 ppm were conducted on the second day of testing.
# The ozone concentration in the ozone chamber was kept at a range approximating the desired 100 ppm and 200 ppm concentrations. For instance, when the desired concentration was 100 ppm, the actual range of concentrations was 98 ppm to 106 ppm, and when the desired concentration was 200 ppm, the actual range of concentration was 198 ppm to 204 ppm. While the samples were being placed into the chamber ozone gas was lost.
smiles,measurement,setting,value
O=[O+][O-] [ozone],difference between the control and the treated sample (in words),"50 ppm ozone, 20 min, first day",no statistically significant difference
same,kill of bacterial pathogen (in words),"100 ppm ozone, compared with 200 ppm",lesser kill rate
same,kill of bacterial pathogen (in words),200 ppm ozone,Significant kills
same,Microbial Count,"first day, target ozone 50 ppm (actual 46-52 ppm), 20 min, control (0 ppm) 7.0 * 10^2",2.6 * 10^2 cfu/g
same,Microbial Count,"first day, target ozone 100 ppm (actual 95-102 ppm), 20 min, control (0 ppm) 1.9 * 10^7",4.8 * 10^5 cfu/g
same,Microbial Count,"second day, ozone 100 ppm (98-106 ppm), 20 min, Trials 2-3, control 2.0 * 10^4",2.0 * 10^3 cfu/g and 1.0 * 10^3 cfu/g
